A value given as a limit tells only on which side of the number the result lay.

This assay has as its target T1, GlyT1 (Homo sapiens, UniProt P48067).
T1 construct: expressed in transfected cells
T1 sequence (P48067 1-706): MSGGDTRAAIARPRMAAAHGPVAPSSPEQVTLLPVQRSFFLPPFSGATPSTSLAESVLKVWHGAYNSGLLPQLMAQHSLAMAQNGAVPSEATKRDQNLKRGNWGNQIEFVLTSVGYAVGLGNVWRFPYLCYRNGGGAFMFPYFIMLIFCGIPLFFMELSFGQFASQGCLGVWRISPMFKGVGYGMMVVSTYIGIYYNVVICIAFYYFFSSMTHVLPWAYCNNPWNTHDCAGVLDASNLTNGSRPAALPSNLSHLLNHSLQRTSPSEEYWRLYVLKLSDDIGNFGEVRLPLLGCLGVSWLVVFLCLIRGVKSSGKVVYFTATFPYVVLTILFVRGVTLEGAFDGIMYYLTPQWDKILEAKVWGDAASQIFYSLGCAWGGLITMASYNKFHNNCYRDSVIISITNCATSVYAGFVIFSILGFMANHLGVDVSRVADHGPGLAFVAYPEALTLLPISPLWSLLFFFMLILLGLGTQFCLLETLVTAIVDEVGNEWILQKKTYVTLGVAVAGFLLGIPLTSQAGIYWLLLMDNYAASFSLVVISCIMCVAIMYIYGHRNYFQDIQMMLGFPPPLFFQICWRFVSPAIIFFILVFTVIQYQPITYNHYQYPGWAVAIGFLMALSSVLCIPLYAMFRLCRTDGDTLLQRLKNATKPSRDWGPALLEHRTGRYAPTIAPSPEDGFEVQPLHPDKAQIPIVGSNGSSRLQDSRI
Description: Glycine Transporter 1 (GlyT1) uptake assay, scintillation proximity assay of [14C]-glycine uptake. To be noted: SPA, four parameter logistic fit, read-out: GlyT1 (pIC50) (converted). Format: cell-based. The procedure, abridged: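 IC50 values derive from four-parameter logistic curves fitted to dose-response data. Uptake of [14C]-glycine measured in scintillation proximity format.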
As for `CNC(=O)c1ccc(OC(C)C(F)(F)F)c(C(=O)N2CCc3nn(-c4ccc(F)cc4)cc3C2)c1Cl` (centres unmarked) [Example 478, 2-Chloro-3-[2-(4-fluorophenyl)-2H 4H 5H 6H 7H-pyrazolo[4,3-c]pyridine-5-carbonyl]-N-methyl-4-[(1 1 1-trifluoropropan-2-yl)oxy]benzamide], the IC50 was under 100 nM. Consider `COc1c(C(=O)N2CCC2)ccc(OC(C)C(F)(F)F)c1C(=O)N1CCc2nn(-c3ccc(F)cc3)cc2C1` (centres unmarked) [Example 479, 1-{3-[2-(4-Fluorophenyl)-2H 4H 5H 6H 7H-pyrazolo[4,3-c]pyridine-5-carbonyl]-2-methoxy-4-[(1 1 1-trifluoropropan-2-yl)oxy]benzoyl}azetidine], for which the IC50 is under 100 nM.

On to `CNC(=O)c1ccc(OC(C)C(F)(F)F)c(C(=O)N2CCc3nn(-c4ccc(F)cc4)cc3C2)c1OC` (centres unmarked) [Example 480, 3-[2-(4-Fluorophenyl)-2H 4H 5H 6H 7H-pyrazolo[4,3-c]pyridine-5-carbonyl]-2-methoxy-N-methyl-4-[(1 1 1-trifluoropropan-2-yl)oxy]benzamide], for which the IC50 was 100 to 1000 nM.

Regarding `CC(Oc1ccc(C(=O)N2CCC2)cc1C(=O)N1CCc2nn(-c3ccc(F)cc3)cc2C1)C(F)(F)F` (centres unmarked) [Example 481, 1-{3-[2-(4-Fluorophenyl)-2H 4H 5H 6H 7H-pyrazolo[4,3-c]pyridine-5-carbonyl]-4-[(1 1 1-trifluoropropan-2-yl)oxy]benzoyl}azetidine], the IC50 was over 10000 nM.

For the molecule `CNC(=O)c1ccc(OC(C)C(F)(F)F)c(C(=O)N2CCc3nn(-c4ccc(F)cc4)cc3C2)c1` (centres unmarked) [Example 482, 3-[2-(4-Fluorophenyl)-2H 4H 5H 6H 7H-pyrazolo[4,3-c]pyridine-5-carbonyl]-N-methyl-4-[(1 1 1-trifluoropropan-2-yl)oxy]benzamide], the IC50 is 100 to 1000 nM.

As for `COc1c(C(N)=O)ccc(OC(C)C(F)(F)F)c1C(=O)N1CCc2nn(-c3ccc(F)cc3)cc2C1` (centres unmarked) [Example 483, 3-[2-(4-Fluorophenyl)-2H 4H 5H 6H 7H-pyrazolo[4,3-c]pyridine-5-carbonyl]-2-methoxy-4-[(1 1 1-trifluoropropan-2-yl)oxy]benzamide], the IC50 was 1000 to 10000 nM. The same measure for `CC(Oc1ccc(C(N)=O)c(Cl)c1C(=O)N1Cc2cn(-c3ccc(F)cc3)nc2C1)C(F)(F)F` (centres unmarked) [Example 484, 2-Chloro-3-[2-(4-fluorophenyl)-2H 4H 5H 6H-pyrrolo[3,4-c]pyrazole-5-carbonyl]-4-[(1 1 1-trifluoropropan-2-yl)oxy]benzamide]: under 100 nM. The same measure for `COc1c(C#N)ccc(C2CCCC2)c1C(=O)N1CCc2nn(-c3ccccc3)cc2C1` [Example 485]: under 100 nM; for `COc1c(C#N)ccc(C2CCCC2)c1C(=O)N1CCc2nn(-c3ccc(F)cc3)cc2C1` [Example 486, 4-Cyclopentyl-3-[2-(4-fluorophenyl)-2H 4H 5H 6H 7H-pyrazolo[4,3-c]pyridine-5-carbonyl]-2-methoxybenzonitrile]: under 100 nM; for `COc1c(C#N)ccc(C2(F)COC2)c1C(=O)N1CCc2nn(-c3ccccc3)cc2C1` [Example 487]: 1000 to 10000 nM.

`COc1c(C#N)ccc(C2CCC2)c1C(=O)N1CCc2nn(-c3ccccc3)cc2C1` [Example 488, 4-Cyclobutyl-2-methoxy-3-{2-phenyl-2H 4H 5H 6H 7H-pyrazolo[4,3-c]pyridine-5-carbonyl}benzonitrile]: the IC50 was 100 to 1000 nM. As for `COc1c(C#N)ccc(C2(F)CCC2)c1C(=O)N1CCc2nn(-c3ccc(F)cc3)cc2C1` [Example 489, 4-(1-Fluorocyclobutyl)-3-[2-(4-fluorophenyl)-2H 4H 5H 6H 7H-pyrazolo[4,3-c]pyridine-5-carbonyl]-2-methoxybenzonitrile], the figure is 100 to 1000 nM; as for `COc1c(C#N)ccc(C2(F)CCCC2)c1C(=O)N1CCc2nn(-c3ccccc3)cc2C1` [Example 490, 4-(1-Fluorocyclopentyl)-2-methoxy-3-{2-phenyl-2H 4H 5H 6H 7H-pyrazolo[4,3-c]pyridine-5-carbonyl}benzonitrile], under 100 nM.

For the molecule `COc1c(C#N)ccc(C2(F)CCCC2)c1C(=O)N1CCc2nn(-c3ccc(F)cc3)cc2C1` [Example 491, 4-(1-Fluorocyclopentyl)-3-[2-(4-fluorophenyl)-2H 4H 5H 6H 7H-pyrazolo[4,3-c]pyridine-5-carbonyl]-2-methoxybenzonitrile], the IC50 is under 100 nM. As for `COc1c(C#N)ccc(C2(F)CCOCC2)c1C(=O)N1CCc2nn(-c3ccc(F)cc3)cc2C1` [Example 492], the IC50 was 100 to 1000 nM. As for `COc1c(C#N)ccc(C2(OC)CCC2)c1C(=O)N1CCc2nn(-c3ccc(F)cc3)cc2C1` [Example 493, 3-[2-(4-Fluorophenyl)-2H 4H 5H 6H 7H-pyrazolo[4,3-c]pyridine-5-carbonyl]-2-methoxy-4-(1-methoxycyclobutyl)benzonitrile], the figure is 1000 to 10000 nM; as for `COc1c(C#N)ccc(C2CCCC2)c1C(=O)N1Cc2cn(-c3ccc(F)cc3)nc2C1` [Example 494, 4-Cyclopentyl-3-[2-(4-fluorophenyl)-2H 4H 5H 6H-pyrrolo[3,4-c]pyrazole-5-carbonyl]-2-methoxybenzonitrile], under 100 nM; as for `COc1c(C#N)ccc(C2CCCC2)c1C(=O)N1Cc2cn(-c3cncc(F)c3)nc2C1` [Example 495, 4-Cyclopentyl-3-[2-(5-fluoropyridin-3-yl)-2H 4H 5H 6H-pyrrolo[3,4-c]pyrazole-5-carbonyl]-2-methoxybenzonitrile], under 100 nM. The same measure for `CS(=O)(=O)c1ccc(N2CCC(F)(F)C2)c(C(=O)N2CCc3nn(-c4ccccc4)cc3C2)c1` [Example 496, 3 3-Difluoro-1-(4-methanesulfonyl-2-{2-phenyl-2H 4H 5H 6H 7H-pyrazolo[4,3-c]pyridine-5-carbonyl}phenyl)pyrrolidine]: 100 to 1000 nM; for `CC(C)(C)COc1ccc(S(C)(=O)=O)cc1C(=O)N1CCc2nn(-c3ccccc3)cc2C1` [Example 497, 5-[2-(2 2-Dimethylpropoxy)-5-methanesulfonylbenzoyl]-2-phenyl-2H 4H 5H 6H 7H-pyrazolo[4,3-c]pyridine]: 100 to 1000 nM.

Consider `CS(=O)(=O)c1ccc(N2CCCC2)c(C(=O)N2CCc3nn(-c4ccccc4)cc3C2)c1` [Example 498, 1-(4-Methanesulfonyl-2-{2-phenyl-2H 4H 5H 6H 7H-pyrazolo[4,3-c]pyridine-5-carbonyl}phenyl)pyrrolidine], for which the IC50 is 1000 to 10000 nM. As for `CS(=O)(=O)c1ccc(N2CCC2)c(C(=O)N2CCc3nn(-c4ccccc4)cc3C2)c1` [Example 499, 1-(4-Methanesulfonyl-2-{2-phenyl-2H 4H 5H 6H 7H-pyrazolo[4,3-c]pyridine-5-carbonyl}phenyl)azetidine], the figure is over 10000 nM; as for `CS(=O)(=O)c1ccc(OCC2CC2)c(C(=O)N2CCc3nn(-c4ccccc4)cc3C2)c1` [Example 500, 5-[2-(Cyclopropylmethoxy)-5-methanesulfonylbenzoyl]-2-phenyl-2H 4H 5H 6H 7H-pyrazolo[4,3-c]pyridine], 1000 to 10000 nM.

For `CC(Oc1ccc(C#N)c(Cl)c1C(=O)N1CCc2c(cnn2-c2ccc(F)cc2)C1)C(F)(F)F` (centres unmarked) [Example 501, 2-Chloro-3-[1-(4-fluorophenyl)-1H 4H 5H 6H 7H-pyrazolo[4,3-c]pyridine-5-carbonyl]-4-[(1 1 1-trifluoropropan-2-yl)oxy]benzonitrile], the IC50 was 100 to 1000 nM. As for `N#Cc1ccc(N2CCC(F)(F)CC2)c(C(=O)N2CCc3nn(-c4ccccc4)cc3C2)c1Cl` [Example 502, 2-Chloro-4-(4 4-difluoropiperidin-1-yl)-3-{2-phenyl-2H 4H 5H 6H 7H-pyrazolo[4,3-c]pyridine-5-carbonyl}benzonitrile], the figure is 100 to 1000 nM; as for `CC(C)(C)COc1ccc(C#N)c(Cl)c1C(=O)N1CCc2nn(-c3ccccc3)cc2C1` [Example 503, 2-Chloro-4-(2 2-dimethylpropoxy)-3-{2-phenyl-2H 4H 5H 6H 7H-pyrazolo[4,3-c]pyridine-5-carbonyl}benzonitrile], 100 to 1000 nM. As for `N#Cc1ccc(OCC2CC2)c(C(=O)N2CCc3nn(-c4ccccc4)cc3C2)c1Cl` [Example 504, 2-Chloro-4-(cyclopropylmethoxy)-3-{2-phenyl-2H 4H 5H 6H 7H-pyrazolo[4,3-c]pyridine-5-carbonyl}benzonitrile], the figure is 1000 to 10000 nM.

In the case of `N#Cc1ccc(N2CCOCC2)c(C(=O)N2CCc3nn(-c4ccccc4)cc3C2)c1Cl` [Example 505, 2-Chloro-4-(morpholin-4-yl)-3-{2-phenyl-2H 4H 5H 6H 7H-pyrazolo[4,3-c]pyridine-5-carbonyl}benzonitrile], the IC50 was 1000 to 10000 nM. The same measure for `CC1(COc2ccc(C#N)c(Cl)c2C(=O)N2CCc3nn(-c4ccccc4)cc3C2)COC1` [Example 506, 2-Chloro-4-[(3-methyloxetan-3-yl)methoxy]-3-{2-phenyl-2H 4H 5H 6H 7H-pyrazolo[4,3-c]pyridine-5-carbonyl}benzonitrile]: 1000 to 10000 nM.

Source of the values: US9708334B2, “Substituted 2,4,5,6-tetrahydropyrrolo[3,4-c]pyrazole and 4,5,6,7-tetrahydro-2H-pyrazolo[4,3-c]pyridine compounds as GlyT1 inhibitors” (DART NEUROSCIENCE (CAYMAN) LTD., priority 2014, dated 2017).
